Data reported in patent US4075336A, “Thiazines and method” (Kanto Ishiseiyaku Co., Ltd., priority 1976, dated 1978).

Experiments:
[1] = Acute toxicity, intraperitoneal (LD50, deaths); assay type: in vivo; conditions: mouse, in vivo, ip; intraperitoneal, dd strain mice, males and females
Experimental: (§1) Animals [dd strain mice; 5 groups of males and 5 groups of females, each group consisting of 8 animals] were intraperitoneally given the compound of this invention in doses of 2000, 2400, 2880, 3456 and 5000 mg/kg. […] Based on this finding, it may be concluded that the value of LD50 is at least more than 5000 mg/kg.

[2] = tested on: dd strain mice; experiment: Acute toxicity, intraperitoneal (LD50, deaths); assay type: in vivo
Experimental: as §1

[3] = tested on: rats; experiment: Analgesic effect, Randall-Selitto method (pain threshold, carrageenan-inflamed paw); assay type: in vivo
Experimental: Using an analgesic effect measuring apparatus (made by Ugo Basile Co., Ltd.), pain thresholds in rats were measured as a function of elapsed time and compared with normal pain threshold values which had previously been determined. Each group consisted of 5 animals, which were subcutaneously given 0.1 ml of a 1% carrageenan suspension on their right paws. The test compounds were given orally, 1 hour before the carrageenan medication. The experiments were repeated twice under the same conditions. The mean values of the results obtained for 10 animals were compared with those of methiazinic acid.
The results obtained are shown in Table 1, wherein "OS" refers to oral administration.

[4] = tested on: Wister-strain rats; experiment: Anti-inflammatory effect, carrageenan-induced edema; assay type: in vivo; conditions: for inhibitory percent: vs control
Experimental: (Carrageenen-induced edema)
Wister-strain rats (each group consisting of 5 animals) were subcutaneously given 0.1 ml of a 1% carrageenan suspension on their right paws. The volumes of the right paws were measured prior to the administration, and thereafter were measured with elapsed time. The inhibitory percent was calculated, in comparison with a control, on the basis of the volume of edema induced. The volume was estimated with reference to the volume before the carrageenan-injection. The test compounds were orally administered 1 hour before the carrageenan-injection. The same experiments were repeated twice. The mean values of the results in all 10 animals were compared with those of methiazinic acid.

[5] = tested on: dd strain mice; conditions: methiazinic acid; source of value not given; cited from earlier work
[6] = 50 mg/kg per os, inflammated paw
[7] = 100 mg/kg per os, inflammated paw

COc1ccc(C2NC(=O)c3ccccc3S2)cc1O (centres unmarked) [Compound of this invention, 4-oxo-2-(3-hydroxy-4-methoxyphenyl)-2,3-dihydro-5,6-benzo-1,3-thiazine]
LD50 [1]: > 5000 mg/kg
toxicity relative to that of methiazinic acid ([2]; from LD50 values): less than one/tenth
deaths ([2]; intraperitoneal, 2000, 2400, 2880, 3456 and 5000 mg/kg, male and female dd strain mice): no deaths were observed
Analgesic coefficient [3, 6]: 0.73
Pain threshold after 30 min. [3, 6]: 62.5 mm Hg
Pain threshold after 60 min. [3, 6]: 57.7 mm Hg
Pain threshold after 90 min. [3, 6]: 48.0 mm Hg
Pain threshold after 120 min. [3, 6]: 41.8 mm Hg
Pain threshold after 180 min. [3, 6]: 36.8 mm Hg
Pain threshold after 240 min. [3, 6]: 44.2 mm Hg
Pain threshold, before medication [3, 6]: 66.8 mm Hg
Analgesic coefficient ([3]; 50 mg/kg per os, normal paw): 0.93
Pain threshold after 30 min. ([3]; 50 mg/kg per os, normal paw): 66.7 mm Hg
Pain threshold after 60 min. ([3]; 50 mg/kg per os, normal paw): 66.0 mm Hg
Pain threshold after 90 min. ([3]; 50 mg/kg per os, normal paw): 64.0 mm Hg
Pain threshold after 120 min. ([3]; 50 mg/kg per os, normal paw): 61.7 mm Hg
Pain threshold after 180 min. ([3]; 50 mg/kg per os, normal paw): 57.3 mm Hg
Pain threshold after 240 min. ([3]; 50 mg/kg per os, normal paw): 60.8 mm Hg
Pain threshold, before medication ([3]; 50 mg/kg per os, normal paw): 67.3 mm Hg
Analgesic coefficient [3, 7]: 0.82
Pain threshold after 30 min. [3, 7]: 66.7 mm Hg
Pain threshold after 60 min. [3, 7]: 63.7 mm Hg
Pain threshold after 90 min. [3, 7]: 57.2 mm Hg
Pain threshold after 120 min. [3, 7]: 49.0 mm Hg
Pain threshold after 180 min. [3, 7]: 43.3 mm Hg
Pain threshold after 240 min. [3, 7]: 43.2 mm Hg
Pain threshold, before medication [3, 7]: 65.6 mm Hg
Analgesic coefficient ([3]; 100 mg/kg per os, normal paw): 0.96
Pain threshold after 30 min. ([3]; 100 mg/kg per os, normal paw): 65.0 mm Hg
Pain threshold after 60 min. ([3]; 100 mg/kg per os, normal paw): 65.7 mm Hg
Pain threshold after 90 min. ([3]; 100 mg/kg per os, normal paw): 65.2 mm Hg
Pain threshold after 120 min. ([3]; 100 mg/kg per os, normal paw): 62.5 mm Hg
Pain threshold after 180 min. ([3]; 100 mg/kg per os, normal paw): 61.0 mm Hg
Pain threshold after 240 min. ([3]; 100 mg/kg per os, normal paw): 61.2 mm Hg
Pain threshold, before medication ([3]; 100 mg/kg per os, normal paw): 66.0 mm Hg
analgesic effect (in words) ([3]; 50 and 100 mg/kg, oral): clearly exerts analgesic effects
duration and strength of analgesic effect compared with methiazinic acid (in words) ([3]; 50 and 100 mg/kg, oral): about the same duration and strength of effect as methiazinic acid
edema percent ([4]; 50 mg/kg per os, 1 hr.): 29.3%
inhibitory percent ([4]; 50 mg/kg per os, 1 hr.): 39.2%
edema percent ([4]; 50 mg/kg per os, 2 hrs.): 43.1%
inhibitory percent ([4]; 50 mg/kg per os, 2 hrs.): 32.6%
edema percent ([4]; 50 mg/kg per os, 3 hrs.): 43.1%
inhibitory percent ([4]; 50 mg/kg per os, 3 hrs.): 37.3%
edema percent ([4]; 50 mg/kg per os, 4 hrs.): 42.4%
inhibitory percent ([4]; 50 mg/kg per os, 4 hrs.): 32.1%
edema percent ([4]; 50 mg/kg per os, 5 hrs.): 37.4%
inhibitory percent ([4]; 50 mg/kg per os, 5 hrs.): 36.4%
edema percent ([4]; 100 mg/kg per os, 1 hr.): 24.1%
inhibitory percent ([4]; 100 mg/kg per os, 1 hr.): 42.1%
edema percent ([4]; 100 mg/kg per os, 2 hrs.): 31.5%
inhibitory percent ([4]; 100 mg/kg per os, 2 hrs.): 49.9%
edema percent ([4]; 100 mg/kg per os, 3 hrs.): 34.6%
inhibitory percent ([4]; 100 mg/kg per os, 3 hrs.): 50.4%
edema percent ([4]; 100 mg/kg per os, 4 hrs.): 33.9%
inhibitory percent ([4]; 100 mg/kg per os, 4 hrs.): 47.5%
edema percent ([4]; 100 mg/kg per os, 5 hrs.): 35.5%
inhibitory percent ([4]; 100 mg/kg per os, 5 hrs.): 39.1%
anti-inflammatory effect compared with methiazinic acid (in words) ([4]; 50 and 100 mg/kg per os): very similar to that of methiazinic acid
duration of anti-inflammatory effect (in words) ([4]; 50 and 100 mg/kg per os): long duration effect, which was observed even after 5 hours
anti-inflammatory effect 1 hour after administration (in words) ([4]; 50 and 100 mg/kg per os, 1 hour): significant effect 1 hour after administration

CN1c2ccccc2Sc2ccc(CC(=O)O)cc21 [Methiazinic acid, α-(10-methyl-2-pheno-thiazinyl)-acetic acid, reference compound]
Analgesic coefficient [3, 6]: 0.74
Pain threshold after 30 min. [3, 6]: 62.7 mm Hg
Pain threshold after 60 min. [3, 6]: 57.7 mm Hg
Pain threshold after 90 min. [3, 6]: 48.9 mm Hg
Pain threshold after 120 min. [3, 6]: 43.5 mm Hg
Pain threshold after 180 min. [3, 6]: 39.0 mm Hg
Pain threshold after 240 min. [3, 6]: 44.5 mm Hg
Pain threshold, before medication [3, 6]: 66.8 mm Hg
Analgesic coefficient ([3]; 50 mg/kg per os, normal paw): 0.94
Pain threshold after 30 min. ([3]; 50 mg/kg per os, normal paw): 66.2 mm Hg
Pain threshold after 60 min. ([3]; 50 mg/kg per os, normal paw): 65.3 mm Hg
Pain threshold after 90 min. ([3]; 50 mg/kg per os, normal paw): 63.8 mm Hg
Pain threshold after 120 min. ([3]; 50 mg/kg per os, normal paw): 62.0 mm Hg
Pain threshold after 180 min. ([3]; 50 mg/kg per os, normal paw): 59.7 mm Hg
Pain threshold after 240 min. ([3]; 50 mg/kg per os, normal paw): 61.3 mm Hg
Pain threshold, before medication ([3]; 50 mg/kg per os, normal paw): 67.2 mm Hg
Analgesic coefficient [3, 7]: 0.83
Pain threshold after 30 min. [3, 7]: 69.3 mm Hg
Pain threshold after 60 min. [3, 7]: 66.7 mm Hg
Pain threshold after 90 min. [3, 7]: 57.3 mm Hg
Pain threshold after 120 min. [3, 7]: 49.5 mm Hg
Pain threshold after 180 min. [3, 7]: 47.2 mm Hg
Pain threshold after 240 min. [3, 7]: 47.2 mm Hg
Pain threshold, before medication [3, 7]: 67.7 mm Hg
Analgesic coefficient ([3]; 100 mg/kg per os, normal paw): 0.98
Pain threshold after 30 min. ([3]; 100 mg/kg per os, normal paw): 69.0 mm Hg
Pain threshold after 60 min. ([3]; 100 mg/kg per os, normal paw): 66.7 mm Hg
Pain threshold after 90 min. ([3]; 100 mg/kg per os, normal paw): 65.5 mm Hg
Pain threshold after 120 min. ([3]; 100 mg/kg per os, normal paw): 64.8 mm Hg
Pain threshold after 180 min. ([3]; 100 mg/kg per os, normal paw): 62.8 mm Hg
Pain threshold after 240 min. ([3]; 100 mg/kg per os, normal paw): 64.0 mm Hg
Pain threshold, before medication ([3]; 100 mg/kg per os, normal paw): 66.9 mm Hg
edema percent ([4]; 50 mg/kg per os, 1 hr.): 38.8%
inhibitory percent ([4]; 50 mg/kg per os, 1 hr.): 19.6%
edema percent ([4]; 50 mg/kg per os, 2 hrs.): 47.7%
inhibitory percent ([4]; 50 mg/kg per os, 2 hrs.): 25.5%
edema percent ([4]; 50 mg/kg per os, 3 hrs.): 48.8%
inhibitory percent ([4]; 50 mg/kg per os, 3 hrs.): 29.2%
edema percent ([4]; 50 mg/kg per os, 4 hrs.): 46.7%
inhibitory percent ([4]; 50 mg/kg per os, 4 hrs.): 25.2%
edema percent ([4]; 50 mg/kg per os, 5 hrs.): 39.4%
inhibitory percent ([4]; 50 mg/kg per os, 5 hrs.): 32.9%
edema percent ([4]; 100 mg/kg per os, 1 hr.): 34.2%
inhibitory percent ([4]; 100 mg/kg per os, 1 hr.): 17.7%
edema percent ([4]; 100 mg/kg per os, 2 hrs.): 38.1%
inhibitory percent ([4]; 100 mg/kg per os, 2 hrs.): 39.3%
edema percent ([4]; 100 mg/kg per os, 3 hrs.): 40.1%
inhibitory percent ([4]; 100 mg/kg per os, 3 hrs.): 42.4%
edema percent ([4]; 100 mg/kg per os, 4 hrs.): 39.7%
inhibitory percent ([4]; 100 mg/kg per os, 4 hrs.): 38.5%
edema percent ([4]; 100 mg/kg per os, 5 hrs.): 36.0%
inhibitory percent ([4]; 100 mg/kg per os, 5 hrs.): 38.3%
LD50 [5]: about 500 mg/kg
